Data: patent US7109294B2, “Bacterial glycosyltransferase polypeptides involved in antibiotic resistance” (priority 2001, dated 2006)

Tests used:
Type in all cases: cell-based, Pseudomonas aeruginosa
[1] = system: P. aeruginosa PA14 wild type biofilm grown cells
[2] = system: 30B1 mutant (PA1874 transposon insertion) biofilm grown cells
[3] = system: 30B1 mutant planktonic cells; experiment: microbe, parasite or virus in culture; conditions: for MBC: Pseudomonas aeruginosa, read-out: MBC-P, MBC of planktonically grown cells
[4] = system: P. aeruginosa PA14 wild type planktonic cells; experiment: microbe, parasite or virus in culture; conditions: for MBC: Pseudomonas aeruginosa, PA14, 24 h, read-out: MBC-P, MBC of planktonically grown cells
[5] = system: 45E7 mutant (PA1163 transposon insertion) biofilm grown cells
[6] = system: 45E7 mutant planktonic cells; experiment: microbe, parasite or virus in culture; conditions: for MBC: Pseudomonas aeruginosa, read-out: MBC-P, MBC of planktonically grown cells
[7] = system: wild type colony biofilm
[8] = system: wild type flow cell biofilm

Molecule	MBC-B, MBC of biofilm grown cells [1] [µg/mL]	MBC-B, MBC of biofilm grown cells [2] [µg/mL]	MBC [3] [µg/mL]	MBC [4] [µg/mL]	MBC of biofilm grown 45E7 lower compared to the wt [5] [fold]	MBC-B, MBC of biofilm grown cells [5] [µg/mL]	MBC [6] [µg/mL]	drop of viability in colony biofilm [7] [fold]	decrease of planktonic MBC relative to the biofilm-grown bacteria [4] [fold]	live versus dead cells in Tb-treated biofilm (BacLight) [8]	MBC-P, MBC of planktonically grown cells [3] [µg/mL]	MBC-P, MBC of planktonically grown cells [4] [µg/mL]	MBC-P, MBC of planktonically grown cells [6] [µg/mL]
O=C(O)c1cn(C2CC2)c2cc(N3CCNCC3)c(F)cc2c1=O [Cip, ciprofloxacin]	50	12.5	4	4	8	6	4	–	–	–	–	–	–
NC[C@H]1O[C@H](O[C@H]2[C@H](O)[C@@H](O[C@H]3O[C@H](CO)[C@@H](O)[C@H](N)[C@H]3O)[C@H](N)C[C@@H]2N)[C@H](N)C[C@@H]1O [Tb, tobramycin]	400	100	8	8	16	25	8	~100	50	more live than dead cells	–	–	–
gentamycin [Gm]	500	250	–	–	8	60	–	–	–	–	40	40	40
